# Results from patent publication US20140243335A1, “SUBSTITUTED HYDOXAMIC ACIDS AND USES THEREOF” (Millennium Pharmaceuticals, Inc., priority 2010, published 2014).
# Structures can show the parent of a compound that is named as a salt.
# Biological target: T1, purified human HDAC6 (Homo sapiens, UniProt Q9UBN7)
# T1 construct: purchased BPS Bioscience 5006
# T1 sequence (Q9UBN7 1-1215): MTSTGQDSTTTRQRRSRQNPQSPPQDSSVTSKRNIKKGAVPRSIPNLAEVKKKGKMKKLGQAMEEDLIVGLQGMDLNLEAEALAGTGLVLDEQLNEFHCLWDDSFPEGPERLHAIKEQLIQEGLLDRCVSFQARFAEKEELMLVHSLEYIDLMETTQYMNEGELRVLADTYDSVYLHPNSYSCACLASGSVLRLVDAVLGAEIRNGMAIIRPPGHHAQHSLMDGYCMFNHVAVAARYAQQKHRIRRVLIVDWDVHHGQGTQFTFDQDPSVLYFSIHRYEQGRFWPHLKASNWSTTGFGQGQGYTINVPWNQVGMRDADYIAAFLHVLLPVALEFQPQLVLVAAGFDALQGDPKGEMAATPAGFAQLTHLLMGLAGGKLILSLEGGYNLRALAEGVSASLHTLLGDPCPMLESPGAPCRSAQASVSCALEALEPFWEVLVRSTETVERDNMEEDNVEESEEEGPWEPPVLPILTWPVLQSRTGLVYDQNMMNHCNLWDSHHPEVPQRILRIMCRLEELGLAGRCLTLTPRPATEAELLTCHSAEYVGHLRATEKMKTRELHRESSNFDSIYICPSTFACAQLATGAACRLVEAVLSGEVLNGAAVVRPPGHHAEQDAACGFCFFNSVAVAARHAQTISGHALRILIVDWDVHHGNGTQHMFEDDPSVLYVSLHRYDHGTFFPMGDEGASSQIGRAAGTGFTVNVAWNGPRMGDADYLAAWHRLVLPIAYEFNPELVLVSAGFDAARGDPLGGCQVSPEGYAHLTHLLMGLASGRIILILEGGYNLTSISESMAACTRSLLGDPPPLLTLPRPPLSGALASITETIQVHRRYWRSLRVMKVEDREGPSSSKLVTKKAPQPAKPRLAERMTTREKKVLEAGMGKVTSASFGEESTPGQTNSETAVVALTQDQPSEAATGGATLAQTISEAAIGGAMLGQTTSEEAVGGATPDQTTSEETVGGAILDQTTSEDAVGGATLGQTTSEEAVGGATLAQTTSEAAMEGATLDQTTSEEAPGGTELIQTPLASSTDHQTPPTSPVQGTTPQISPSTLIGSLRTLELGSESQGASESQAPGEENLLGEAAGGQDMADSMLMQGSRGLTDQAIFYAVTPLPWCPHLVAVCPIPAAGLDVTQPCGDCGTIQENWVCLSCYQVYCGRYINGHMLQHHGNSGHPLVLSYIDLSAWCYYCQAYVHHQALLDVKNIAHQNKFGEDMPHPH
# Test: HDAC6 Enzyme Assay
# Type: biochemical
# Conditions: HDAC6 inhibition at a compound concentration of 0.412 μM; read-out: Percent Inhibition at 0.412 μM
row,Structure (SMILES),inhibition at 0.412 µM [%]
1,"O=C(NO)c1ccc2c(c1)CC(c1ccccc1C(F)(F)F)CC2 (stereo not drawn) [Compound I-185, N-hydroxy-7-[2-(trifluoromethyl)phenyl]-5,6,7,8-tetrahydronaphthalene-2-carboxamide]",85
2,"O=C(NO)c1ccc2c(c1)CC(c1ccc(N3CCNCC3)nc1)CC2 (stereo not drawn) [Compound I-190, N-hydroxy-7-(6-piperazin-1-ylpyridin-3-yl)-5,6,7,8-tetrahydronaphthalene-2-carboxamide]",90
3,"CN(C)CCOc1cccc(C2CCc3ccc(C(=O)NO)cc3C2)c1 (stereo not drawn) [Compound I-194, 7-{3-[2-(dimethylamino)ethoxy]phenyl}-N-hydroxy-5,6,7,8-tetrahydronaphthalene-2-carboxamide]",86
4,"CC1(C(=O)N2C3CCC2c2cc(C(=O)NO)ccc23)CCCCC1 (stereo not drawn) [Compound I-196, N-hydroxy-9-[(1-methylcyclohexyl)carbonyl]-1,2,3,4-tetrahydro-1,4-epiminonaphthalene-6-carboxamide]",32
5,"O=C(NO)c1ccc2c(c1)C1CCC2N1C(=O)c1ccc(Cl)cc1 (stereo not drawn) [Compound I-197, 9-(4-chlorobenzoyl)-N-hydroxy-1,2,3,4-tetrahydro-1,4-epiminonaphthalene-6-carboxamide]",55
6,"COc1ccc(C(=O)N2C3CCC2c2cc(C(=O)NO)ccc23)cc1 (stereo not drawn) [Compound I-198, N-hydroxy-9-(4-methoxybenzoyl)-1,2,3,4-tetrahydro-1,4-epiminonaphthalene-6-carboxamide]",60
7,"O=C(NO)c1ccc2c(c1)C1CCC2N1C(=O)c1ccc(-c2ccccc2)cc1 (stereo not drawn) [Compound I-199, 9-(biphenyl-4-ylcarbonyl)-N-hydroxy-1,2,3,4-tetrahydro-1,4-epiminonaphthalene-6-carboxamide]",70
8,"CC(C)(C)c1ccc(C(=O)N2C3CCC2c2cc(C(=O)NO)ccc23)cc1 (stereo not drawn) [Compound I-200, 9-(4-tert-butylbenzoyl)-N-hydroxy-1,2,3,4-tetrahydro-1,4-epiminonaphthalene-6-carboxamide]",67
9,"CC(C)(C)C(=O)N1C2CCC1c1cc(C(=O)NO)ccc12 (stereo not drawn) [Compound I-201, 9-(2,2-dimethylpropanoyl)-N-hydroxy-1,2,3,4-tetrahydro-1,4-epiminonaphthalene-6-carboxamide]",29
10,"O=C(NO)c1ccc2c(c1)C1CCC2N1C(=O)c1cc2ccccc2o1 (stereo not drawn) [Compound I-202, 9-(1-benzofuran-2-ylcarbonyl)-N-hydroxy-1,2,3,4-tetrahydro-1,4-epiminonaphthalene-6-carboxamide]",19
11,"O=C(NO)c1ccc2c(c1)C1CCC2N1C(=O)c1sc2ccccc2c1Cl (stereo not drawn) [Compound I-203, 9-[(3-chloro-1-benzothien-2-yl)carbonyl]-N-hydroxy-1,2,3,4-tetrahydro-1,4-epiminonaphthalene-6-carboxamide]",53
12,"O=C(NO)c1ccc2c(c1)C1CCC2N1C(=O)c1cc2ccccc2s1 (stereo not drawn) [Compound I-204, 9-(1-benzothien-2-ylcarbonyl)-N-hydroxy-1,2,3,4-tetrahydro-1,4-epiminonaphthalene-6-carboxamide]",23
13,"O=C(NO)c1ccc2c(c1)C1CCC2N1C(=O)C12CC3CC(CC(C3)C1)C2 (stereo not drawn) [Compound I-205, 9-(1-adamantylcarbonyl)-N-hydroxy-1,2,3,4-tetrahydro-1,4-epiminonaphthalene-6-carboxamide]",17
14,Cc1nc(-c2ccccn2)sc1C(=O)N1C2CCC1c1cc(C(=O)NO)ccc12 (stereo not drawn) [Compound I-206],18
15,"CCCC(=O)N1C2CCC1c1cc(C(=O)NO)ccc12 (stereo not drawn) [Compound I-207, 9-butyryl-N-hydroxy-1,2,3,4-tetrahydro-1,4-epiminonaphthalene-6-carboxamide]",25
16,"Cc1nc(C(=O)N2C3CCC2c2cc(C(=O)NO)ccc23)cs1 (stereo not drawn) [Compound I-208, N-hydroxy-9-[(2-methyl-1,3-thiazol-4-yl)carbonyl]-1,2,3,4-tetrahydro-1,4-epiminonaphthalene-6-carboxamide]",34
17,"O=C(NO)c1ccc2c(c1)C1CCC2N1C(=O)c1ccccn1 (stereo not drawn) [Compound I-210, N-hydroxy-9-(pyridin-2-ylcarbonyl)-1,2,3,4-tetrahydro-1,4-epiminonaphthalene-6-carboxamide]",28
18,"O=C(NO)c1ccc2c(c1)C1CCC2N1C(=O)Cc1ccccc1 (stereo not drawn) [Compound I-211, N-hydroxy-9-(phenylacetyl)-1,2,3,4-tetrahydro-1,4-epiminonaphthalene-6-carboxamide]",51
19,"O=C(NO)c1ccc2c(c1)CC(C1CCNCC1)CC2 (stereo not drawn) [Compound I-212, N-hydroxy-7-piperidin-4-yl-5,6,7,8-tetrahydronaphthalene-2-carboxamide. HCl]",72
20,"CC(C)(C)OC(=O)N1CCC(C)(C(=O)Nc2cc(OC3CCc4cc(C(=O)NO)ccc4C3)ccn2)CC1 (stereo not drawn) [Compound I-214, tert-Butyl 4-({[4-({6-[(hydroxyamino)carbonyl]-1,2,3,4-tetrahydronaphthalen-2-yl}oxy)pyridin-2-yl]amino}carbonyl)-4-methylpiperidine-1-carboxylate]",88
21,"CC(C)N1CCC(C)(C(=O)Nc2cc(OC3CCc4cc(C(=O)NO)ccc4C3)ccn2)CC1 (stereo not drawn) [Compound I-219, N-[4-({6-[(hydroxyamino)carbonyl]-1,2,3,4-tetrahydronaphthalen-2-yl}oxy)pyridin-2-yl]-1-isopropyl-4-methylpiperidine-4-carboxamide]",90
22,"O=C(NO)c1ccc2c(c1)CCC(Oc1ccnc(C(=O)NC3CCNCC3)c1)C2 (stereo not drawn) [Compound I-220, 4-({6-[(hydroxyamino)carbonyl]-1,2,3,4-tetrahydronaphthalen-2-yl}oxy)-N-piperidin-4-ylpyridine-2-carboxamide]",92
23,"CC(C)(C)OC(=O)N1CCC(C2CCc3ccc(C(=O)NO)cc3C2)CC1 (stereo not drawn) [Compound I-221, tert-butyl 4-{7-[(hydroxyamino)carbonyl]-1,2,3,4-tetrahydronaphthalen-2-yl}piperidine-1-carboxylate]",41
24,"CCN1CCC(C)(C(=O)Nc2cc(OC3CCc4cc(C(=O)NO)ccc4C3)ccn2)CC1 (stereo not drawn) [Compound I-222, 1-ethyl-N-[4-({6-[(hydroxyamino)carbonyl]-1,2,3,4-tetrahydronaphthalen-2-yl}oxy)pyridin-2-yl]-4-methylpiperidine-4-carboxamide]",91
25,"CC(C)(C)OC(=O)N1CCC(NC(=O)c2cc(OC3CCc4cc(C(=O)NO)ccc4C3)ccn2)CC1 (stereo not drawn) [Compound I-223, tert-butyl 4-({[4-({6-[(hydroxyamino)carbonyl]-1,2,3,4-tetrahydronaphthalen-2-yl}oxy)pyridin-2-yl]carbonyl}amino)piperidine-1-carboxylate]",88
26,"CC(C)(C)OC(=O)N1CCC(C(=O)Nc2cc(OC3CCc4cc(C(=O)NO)ccc4C3)ccn2)CC1 (stereo not drawn) [Compound I-224, tert-butyl 4-({[4-({6-[(hydroxyamino)carbonyl]-1,2,3,4-tetrahydronaphthalen-2-yl}oxy)pyridin-2-yl]amino}carbonyl)piperidine-1-carboxylate]",94
27,"O=C(NO)c1ccc2c(c1)CCC(Oc1ccnc(NC(=O)C3CCNCC3)c1)C2 (stereo not drawn) [Compound I-225, N-[4-({6-[(hydroxyamino)carbonyl]-1,2,3,4-tetrahydronaphthalen-2-yl}oxy)pyridin-2-yl]piperidine-4-carboxamide]",95
28,"CCN(CC)CCNC(=O)c1cc(OC2CCc3cc(C(=O)NO)ccc3C2)ccn1 (stereo not drawn) [Compound I-226, N-[2-(diethylamino)ethyl]-4-({6-[(hydroxyamino)carbonyl]-1,2,3,4-tetrahydronaphthalen-2-yl}oxy)pyridine-2-carboxamide]",93
29,"CCN1CCC(NC(=O)c2cc(OC3CCc4cc(C(=O)NO)ccc4C3)ccn2)CC1 (stereo not drawn) [Compound I-227, N-(1-ethylpiperidin-4-yl)-4-({6-[(hydroxyamino)carbonyl]-1,2,3,4-tetrahydronaphthalen-2-yl}oxy)pyridine-2-carboxamide]",95
30,"O=C(NO)c1ccc2c(c1)CCC(Oc1ccnc(Nc3ccc(Cl)cc3)c1)C2 (stereo not drawn) [Compound I-228, 6-({2-[(4-chlorophenyl)amino]pyridin-4-yl}oxy)-N-hydroxy-5,6,7,8-tetrahydronaphthalene-2-carboxamide]",90
